Our source for the IC50 values is patent publication US4983597A, “Beta-lactams as anticholesterolemic agents” (Merck & Co., Inc., priority 1989, dated 1991).

The structures appear in SMILES notation. pIC50: −log10 of the molar value.

One assay addresses T1, HMG-CoA synthase (Rattus norvegicus, UniProt P17425).
T1 construct: The livers from male Charles River CD rats (225-350 g) were homogenized; from tissue; host or cells: rat liver (male Charles River CD rats), 100,000 x g supernatant, ammonium sulfate and DEAE-52 fraction
T1 sequence (P17425 1-520): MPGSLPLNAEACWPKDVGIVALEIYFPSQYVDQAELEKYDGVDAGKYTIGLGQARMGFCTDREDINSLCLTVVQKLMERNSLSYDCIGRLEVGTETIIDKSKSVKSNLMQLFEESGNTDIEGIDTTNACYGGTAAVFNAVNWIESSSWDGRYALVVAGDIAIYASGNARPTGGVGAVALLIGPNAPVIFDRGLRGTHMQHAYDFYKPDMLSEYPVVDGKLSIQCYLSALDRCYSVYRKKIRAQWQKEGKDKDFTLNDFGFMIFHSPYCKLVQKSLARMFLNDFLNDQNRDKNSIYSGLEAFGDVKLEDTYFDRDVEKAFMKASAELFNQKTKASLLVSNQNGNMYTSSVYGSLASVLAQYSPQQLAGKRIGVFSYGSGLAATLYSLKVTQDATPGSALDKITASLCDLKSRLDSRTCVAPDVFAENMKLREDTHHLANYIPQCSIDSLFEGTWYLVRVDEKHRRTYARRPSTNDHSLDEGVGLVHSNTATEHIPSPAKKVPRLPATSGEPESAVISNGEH
Description: HMG-CoA Synthase Inhibition Assay. It counts as biochemical. To be noted: Table I; rat liver enzyme, 1-[14C]-acetyl-CoA incorporation. The procedure:
The intrinisic HMG-CoA synthase inhibition activity of the compounds of this invention is measured by the standard in vitro protocol described below:
The livers from male Charles River CD rats (225-350 g) were homogenized in 0.25 M sucrose which was adjusted with phenylmethylsulfonylfluoride (PMSF) and N-p-tosyl-1-lysine chloromethyl ketone (TLCK) so that the final concentration of each was […], respectively. The homogenate was centrifuged at 15,000× g for 20 minutes, the supernatant filtered through a fine nylon screen to remove most of the fat layer and recentrifuged at 100,000× g for 1 hour. This supernatant was removed and 1 M potassium phosphate, dithiothreitol (DTT) and ethylene glycolbis(β-aminoethyl ether)-N,N,N',N'-tetraacetic acid (EGTA) added to give a final concentration of 0.1 M (pH 7.2), 0.5 mM and 0.1 mM, respectively. Solid ammonium sulfate was added to 50% saturation to the protein solution, it was centrifuged at 15,000× g and the supernatant discarded. This precipitated protein could be stored at -70° C. for at least one month with very little loss of activity. The ammonium sulfate precipitate was dissolved in an minimal amount of 0.06 M potassium phosphate buffer (pH 7.2) containing 0.5 mM dithiothreitol and 0.1 mM EGTA (referred to as 0.06 M phosphate buffer) and dialyzed overnight against 2 liters of the same buffer to remove the ammonium sulfate and to inactivate HMG-CoA lyase [Clinkenbeard, et al., J. Biol. Chem. 250, 3108-3116(1975)].
The dialyzed extract was added to a column of DEAE-52 (Whatman) which had been equilibrated with 0.06 M phosphate buffer (10 mg of protein in 1 ml bed volume of the resin). The DEAE-cellulose was eluted with 0.06 M phosphate buffer until the optical density at 280 nm was essentially zero. This fraction contained the β-ketoacetyl-CoA thiolase activity. The HMG-CoA synthase was eluted from the column with 0.1 M phosphate buffer (pH 7.2) containing 0.5 mM DTT and […] EGTA, and was virtually free of all thiolase activity. The protein was precipitated by the addition of ammonium sulfate to give 50% saturation. This solution was stirred for 10 minutes at 4° C. and the precipitate collected by centrifugation at 15,000 rpm for 10 minutes. The supernatant was discarded and the precipitate dissolved in a minimum of 0.06 M phosphate buffer, pH 7.2 (about 10 ml) and the enzyme stored at -80° C.
HMG-CoA Synthase Inhibition Assay
Enzyme protein (ca. 24 mg) was added to a solution containing […] Tris-HCl (pH 8.0), 11.7 μM MgCl2, 1.17 μM ethylenediaminetetraacetic acid (EDTA), 0.58 μM dithiothreitol, and the indicated concentrations of the test compound (added as a 2 mg/ml solution in dimethylsulfoxide). The incubation took place in a volume of 0.085 ml at 30° in a shaking water bath. After 5 minutes, […] of a solution containing acetoacetyl-CoA and 0.1 μCi of 1-[^14 C]-acetyl-CoA was added to give a final concentrations of 0.1 and 0.4 μM, respectively. The incubation was continued for 10 more minutes and the reaction stopped by the addition of […] of the assay mixture to 0.2 ml of 6N HCl in a glass scintillation vial. The vial was heated for 1 hour at 120° after which time 0.2 ml more of 6N HCl was again added to each vial and the heating continued for another hour. Following this, 1.0 ml of 0.9% saline was added to each vial and finally 10 ml of scintillation liquid. Radioactivity was determined in a Packard Tri-Carb liquid scintillation counter. Percent inhibition is calculated by the formula: [formula]
IC50 values were determined by plotting the log of the concentration of the test compound verses the percentage inhibition and fitting a straight line to the resulting data by using the least squares method.
Usually pIC50 stands for the negative decadic logarithm of the IC50, by convention in mol/L. Low readings indicate a high IC50, high ones a low IC50. The compound `CC[C@H]1C(=O)N(S(=O)(=O)c2ccc(C)cc2)[C@H]1COC(=O)c1ccc(OC)cc1` [Table I j] gave a pIC50 of 6.70.
For the compound `CC[C@@H]1C(=O)N(S(=O)(=O)c2ccc(C)cc2)[C@@H]1COC(=O)c1ccc(OC)cc1` (relative stereo) [Table I cc], the pIC50 was 7.52.
`CC[C@@H]1C(=O)N(S(=O)(=O)c2ccc(C)cc2)[C@@H]1COC(=O)c1cccc(NS(C)(=O)=O)c1` (relative stereo) [Table I b] showed a pIC50 of 7.60.
Same read-out and setting: with `CCCCNC(=O)c1ccc(C(=O)OC[C@@H]2[C@H](CC)C(=O)N2S(=O)(=O)c2ccc(C)cc2)cc1` (relative stereo) [Table I jj] the figure was 7.70; with `CC[C@@H]1C(=O)N(S(=O)(=O)c2ccc(C)cc2)[C@@H]1COC(=O)c1cnc(OC)c(OC)c1` (relative stereo) [Table I oo], 7.42.
On the same count and under the same terms, with `CC[C@@H]1C(=O)N(S(=O)(=O)c2ccc(C)cc2)[C@@H]1COC(=O)c1cccc(N)c1` (relative stereo) [Table I v] the figure was 7.35; with `CCCCc1ccc(C(=O)OC[C@@H]2[C@H](CC)C(=O)N2S(=O)(=O)c2ccc(C)cc2)nc1` (relative stereo) [Table I h], 7.35; with `CC[C@@H]1C(=O)N(S(=O)(=O)c2ccc(C)cc2)[C@@H]1COC(=O)c1ccoc1` (relative stereo) [Table I o], 6.49.
Same read-out and setting: then `CC[C@@H]1C(=O)N(S(=O)(=O)c2ccc(C)cc2)[C@@H]1COC(=O)c1ccco1` (relative stereo) [Table I g], with 8.10; and `CC[C@@H]1C(=O)N(S(=O)(=O)c2ccc(C)cc2)[C@@H]1COC(=O)c1ccc([N+](=O)[O-])cc1` (relative stereo) [Table I y], with 7.55.
Consider `CC[C@@H]1C(=O)N(S(=O)(=O)c2ccc(C)cc2)[C@@H]1COC(=O)c1ccc2ccccc2n1` (relative stereo) [Table I p], for which the pIC50 is 7.68.
Take `CC[C@@H]1C(=O)N(S(=O)(=O)c2ccc(C)cc2)[C@@H]1COC(=O)c1ccnnc1` (relative stereo) [Table I m]: the pIC50 was 7.09.
Turning to `CC[C@@H]1C(=O)N(S(=O)(=O)c2ccc(C)cc2)[C@@H]1COC(=O)c1ccc(OC)cc1` [Table I i], the pIC50 is 7.52.
Take `CC[C@@H]1C(=O)N(S(=O)(=O)c2ccc(C)cc2)[C@@H]1COC(=O)c1ccco1` [Table I gg]: the pIC50 was 7.96.
`CC[C@@H]1C(=O)N(S(=O)(=O)c2ccc(C)cc2)[C@@H]1COC(=O)c1ccc(N)cc1` (relative stereo) [Table I kk] showed a pIC50 of 7.33.
The same measure, in the same setting: with `CC[C@@H]1C(=O)N(S(=O)(=O)c2ccc(C)cc2)[C@@H]1COC(=O)c1ccncc1` (relative stereo) [Table I d] the figure was 7.21.
Same read-out and setting: with `CC[C@@H]1C(=O)N(S(=O)(=O)c2ccc(C)cc2)[C@@H]1COC(=O)c1cccs1` (relative stereo) [Table I s] the figure was 7.42.
The compound `CC[C@@H]1C(=O)N(S(=O)(=O)c2ccc(C)cc2)[C@@H]1COC(=O)c1ccc(C(=O)OC)cc1` (relative stereo) [Table I ii] gave a pIC50 of 8.07.
Compound `CC[C@@H]1C(=O)N(S(=O)(=O)c2ccc(C)cc2)[C@@H]1COC(=O)c1cc2ccccc2oc1=O` (relative stereo) [Table I ee] gave a pIC50 of 7.30.
Compound `COc1ccc(C(=O)OC[C@H]2[C@H](CO)C(=O)N2S(=O)(=O)c2ccc(C)cc2)cc1` (relative stereo) [Table I ss] showed a pIC50 of 6.82.
`COc1ccc(C(=O)OC[C@@H]2[C@H](C(C)C)C(=O)N2S(=O)(=O)c2ccc(C)cc2)cc1` (relative stereo) [Table I hh] had a pIC50 of 6.89.

The same assay, now with this note: Table II; rat liver enzyme, 1-[14C]-acetyl-CoA incorporation.
As for `CCOc1ccc(CC(=O)OC[C@@H]2[C@H](CC)C(=O)N2S(=O)(=O)c2ccc(C)cc2)cc1C` (relative stereo) [Table II o], the pIC50 was 8.68.
Regarding `CO[C@@H](C(=O)OC[C@@H]1CC(=O)N1S(=O)(=O)c1ccc(C)cc1)c1ccccc1` [Table II f], the negative logarithm of the IC50 (pIC50) is 7.30.
On the same count and under the same terms, then `CC[C@@H]1C(=O)N(S(=O)(=O)c2ccc(C)cc2)[C@@H]1COC(=O)Cc1ccccn1` (relative stereo) [Table II p], with 8.00.
Turning to `CC[C@@H]1C(=O)N(S(=O)(=O)c2ccc(C)cc2)[C@@H]1COC(=O)[C@H](OC)c1ccccc1` [Table II d, cis-(3S), (4S)-3-Ethyl-4-[(R)-α-methoxyphenylacetoxyl]methyl-N-toluenesulfonyl-2-azetidinone], the pIC50 was 7.74.
Regarding `CCCOc1c(Br)cc(/C=C/C(=O)OC[C@@H]2[C@H](CC)C(=O)N2S(=O)(=O)c2ccc(C)cc2)cc1OC` (relative stereo) [Table II u], the pIC50 is 7.05.
The compound `CC[C@@H]1C(=O)N(S(=O)(=O)c2ccc(C)cc2)[C@@H]1COC(=O)/C=C/c1cccnc1` (relative stereo) [Table II h] showed a negative-log IC50 (pIC50) of 7.51.
For `CC[C@H]1C(=O)N(S(=O)(=O)c2ccc(C)cc2)[C@H]1COC(=O)Nc1ccc(C)cc1` (relative stereo) [Table II v], the negative-log IC50 (pIC50) was 7.28.
In turn, `CC[C@H]1C(=O)N(S(=O)(=O)c2ccc(C)cc2)[C@H]1COC(=O)Cc1ccc(OC)c(OC)c1` (relative stereo) [Table II y] had a pIC50 of 7.52.
Still for that read-out and setting: then `CC[C@@H]1C(=O)N(S(=O)(=O)c2ccc(C)cc2)[C@@H]1COC(=O)Cc1ccco1` (relative stereo) [Table II l], with 5.62.

The same assay, now with this note: Table IV; rat liver enzyme, 1-[14C]-acetyl-CoA incorporation.
With `Cc1ccc(S(=O)(=O)N2C(=O)[C@H](CO)[C@H]2C=Cc2ccccc2)cc1` (relative stereo) [Table IV c], the pIC50 is 5.96.
`CC[C@@H]1C(=O)N(S(=O)(=O)c2ccc(C)cc2)[C@H]1C(C)=Cc1ccccc1` (relative stereo) [Table IV e] had a pIC50 of 4.30.
Take `CCC[C@H]1C(=O)N(S(=O)(=O)c2ccc(C)cc2)[C@@H]1C=Cc1ccccc1` (relative stereo) [Table IV a]: the pIC50 is 5.82.

The same assay, now with this note: Table V; rat liver enzyme, 1-[14C]-acetyl-CoA incorporation.
The compound `CC[C@H]1C(=O)N(S(=O)(=O)c2ccc(C)cc2)[C@H]1CCc1ccccc1` (relative stereo) [Table V b] gave a pIC50 of 7.07.
In the case of `CC(=O)OCC(C)C1CC(=O)N1S(=O)(=O)c1ccc(C)cc1` (centres unmarked) [Table V g], the pIC50 was 6.54.
`CC(=O)OC(c1ccccc1)C(C)C1CC(=O)N1S(=O)(=O)c1ccc(C)cc1` (centres unmarked) [Table V f]: the pIC50 was 6.31.
Still for that read-out and setting: with `CCC1C(=O)N(S(=O)(=O)c2ccc(C)cc2)C1C(C)Cc1ccccc1` (centres unmarked) [Table V d] the figure was 6.76.

The assay is the same for the next values; noted with them: Table VI; rat liver enzyme, 1-[14C]-acetyl-CoA incorporation.
`Cc1ccc(S(=O)(=O)N2C(=O)C(C)(C)C2C(Cc2ccccc2)OC(=O)c2ccccc2)cc1` (centres unmarked) [Table VI b] gave a pIC50 of 6.40.
